{"source": "patent US6537758B2", "about": "“Method for isolating nucleic acid from micronuclei separated from a cell” (The Salk Institute for Biological Studies, priority 1995, dated 2003)", "origin": "cited, not measured here", "key": {"HL60 cells": {"system": "HL60 cells", "details": "low concentrations of HU"}, "[1]": {"system": "mouse cells with unstably amplified dihydrofolate reductase (DHFR) genes"}}, "data": [{"smiles": "NC(=O)NO", "note": "[hydroxyurea]", "values": [{"measurement": "elimination of genes amplified on DMs", "setting": "cells containing DMs; HU at concentrations that do not inhibit DNA synthesis or ribonucleotide reductase", "result": "eliminated"}, {"measurement": "micronuclei formation", "setting": "cells containing DMs; HU-treatment of cells containing DMs", "result": "increase in micronuclei formation"}, {"measurement": "c-myc expression", "setting": "HL60 cells", "result": "decreased c-myc expression"}, {"measurement": "differentiation", "setting": "HL60 cells", "result": "induction of differentiation"}, {"measurement": "number of c-myc-containing DMs", "setting": "HL60 cells", "result": "reduced the number of c-myc-containing DMs"}, {"measurement": "rate of loss of unstably amplified DHFR genes", "setting": "[1]", "result": "increase the rate of loss"}]}]}
